Experimental data taken from US5710174A, “Factor XIIIA inhibitor” (Zymo Genetics, Inc., priority 1995, dated 1998).
Where two headings read alike, the source gives them in different places.

Legend:
[1] = biological target: T1, tissue transglutaminase (tTG) (Cavia cutleri, UniProt P08587); assay: tTG screening assay; assay type: biochemical
T1 construct: purchased Sigma
T1 sequence (P08587 1-690): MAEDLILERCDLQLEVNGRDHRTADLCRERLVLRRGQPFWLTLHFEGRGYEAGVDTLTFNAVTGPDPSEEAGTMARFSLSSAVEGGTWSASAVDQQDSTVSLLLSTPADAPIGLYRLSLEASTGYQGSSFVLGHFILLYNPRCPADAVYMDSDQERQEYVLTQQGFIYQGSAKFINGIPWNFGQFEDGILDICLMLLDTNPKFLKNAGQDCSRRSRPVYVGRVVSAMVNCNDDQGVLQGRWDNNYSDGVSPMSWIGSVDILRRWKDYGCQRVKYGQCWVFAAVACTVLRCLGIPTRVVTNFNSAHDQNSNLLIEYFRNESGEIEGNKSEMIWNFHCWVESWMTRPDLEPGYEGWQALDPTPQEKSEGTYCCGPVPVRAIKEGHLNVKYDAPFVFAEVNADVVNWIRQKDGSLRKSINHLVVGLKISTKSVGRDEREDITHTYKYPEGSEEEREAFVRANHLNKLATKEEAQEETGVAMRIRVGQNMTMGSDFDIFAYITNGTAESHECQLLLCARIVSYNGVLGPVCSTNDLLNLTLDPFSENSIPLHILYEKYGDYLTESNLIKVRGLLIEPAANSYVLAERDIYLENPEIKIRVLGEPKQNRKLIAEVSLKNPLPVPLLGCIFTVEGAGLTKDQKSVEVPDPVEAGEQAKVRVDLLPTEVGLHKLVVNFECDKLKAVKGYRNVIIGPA
Excerpt: Because FXIII is a member of the tissue transglutaminase (tTG) family, all potential FXIIIa inhibitors identified in the primary FXIIIa screening assay were further screened for tTG (non-FXIII-specific) inhibitory activity. The tTG screening assay was identical to the primary FXIIIa screening assay, except that tTG (Sigma) was used instead of FXIIIa and no thrombin or PPACK was used.
The determination of IC50 values was done the same as in the primary FXIIIa screening assay, except that purified compounds were used at varying concentrations (instead of crude culture extracts). The IC50 values allow one to make comparisons of one compound to another.

papain = biological target: T2, papain (Carica papaya, UniProt P00784); assay: Papain inhibition assay; assay type: biochemical; settings: for Papain inhibition (result in words, IC50 table): 100 μM to 10 nM, 30 min at 37° C.
T2 construct: purchased Boehringer Mannheim
T2 sequence (P00784 134-345): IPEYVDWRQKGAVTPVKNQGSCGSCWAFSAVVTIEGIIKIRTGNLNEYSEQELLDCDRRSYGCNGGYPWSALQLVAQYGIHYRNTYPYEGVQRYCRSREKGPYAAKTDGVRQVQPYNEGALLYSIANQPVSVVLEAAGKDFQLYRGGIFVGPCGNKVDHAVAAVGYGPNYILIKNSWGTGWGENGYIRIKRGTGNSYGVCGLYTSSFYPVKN
Protocol: For the papain inhibition assay, a buffer containing 0.1M NaPO4 and 2.5 mM EDTA at about pH 7.0 was used. An Azocoll™ solution was prepared by adding 5 mg Azocoll™ (Calbiochem; an insoluble, powdered cowhide to which a bright red dye is attached (azo-dye-bound collagen)) to the buffer while stirring. The Azocoll was prewarmed to about 37° C. 10 μl of 0.1M L-cysteine, 10 μl of 50 μg/ml papain (Boehringer Mannheim), 0.5 ml of Azocoll solution, and 50 μl of one of a series of concentrations of ZG-1400a, iodoacetamide, iodoacetic acid, cerulenin, or 50 μl of the DMSO or ethanol negative controls were added to duplicate 13×75 mm glass tubes. The ZG-1400a, iodoacetamide, and iodoacetic acid were individually prepared in 10% DMSO and tested using half-log dilutions, starting at a final assay concentration of 100 μM and diluting to 10 nM. Cerulenin was prepared in 10% ethanol and tested using half-log dilutions, starting at a final assay concentration of 100 μM and diluting to 10 nM. A negative (no inhibition) control for ZG-1400a, iodoacetamide and iodoacetic acid was 50 μl of 10% DMSO to give a final assay concentration of 1% DMSO in each control tube. A negative control for cerulenin was 50 μl of 10% ethanol to give a final assay concentration of 1% ethanol in each control tube. The test and control tubes then were incubated for 30 min at 37° C. in an agitated water bath.
After incubation, all of the tubes were centrifuged at 2000 RPM for 5 min. The supernatant was removed and its absorbance was read at 520 nm on a Beckman DU640 spectrophotometer to determine the amount of papain inhibition.

plasma clots = assay: Plasma clot lysis assay; set-up: species or system human; settings: 100 μM; for % Plasma Clot lysis: clots formed about 20 h, plasminogen and urokinase about 4 h
Protocol: For this assay, 50 μl of one of a series of concentrations of iodoacetic acid, cerulenin, or ZG-1400a was added to 0.5 ml human citrated plasma (prepared from one blood donor) in 5 ml polypropylene tubes. The ZG-1400a and iodoacetic acid were individually prepared in 10% DMSO and tested using half-log dilutions, starting at a final assay concentration of 100 μM and diluting to 10 μM. Cerulenin was prepared in 10% ethanol and tested using half-log dilutions, starting at a final assay concentration of 100 μM and diluting to 10 μM.
Approximately 10^6 cpm ^125 I-fibrinogen (Amersham), 50 mM CaCl2 (20 mM above citrate concentration) and 5 units thrombin (bovine, Enzyme Research Labs) were added to each test and control tube. The tubes were incubated while rocking for 20 h at 37° C. Plasma clots formed in the tubes were washed three times with about 1 ml phosphate buffered saline (PBS). The plasma clots in each tube were counted after the PBS washes.
Approximately 2 ml of 50 mM Tris, pH 7.4, containing 50 mM NaCl, 28 μg plasminogen (human, Calbiochem), and 280 ng urokinase (human, Calbiochem) were added to the clots in test and control tubes. At 1, 2, and 4 h intervals, 25 μl aliquots of the samples were removed from each tube and counted.
The values shown in Table 3 represent the amount of lysis after plasma clots were formed for about 20 h and exposed to plasminogen and urokinase for about 4 h.

[2] = purified compound, read-out: IC50 tTG Screen

Structure (SMILES)	IC50 [1] [µM]	IC50 (papain) [µM]	Papain inhibition (result in words, IC50 table) (papain)	IC50 [1, 2] [µM]	susceptibility of plasma clots to lysis by plasminogen and urokinase (plasma clots)	% Plasma Clot lysis (plasma clots) [%]	Papain inhibition (result in words, IC50 table) (papain; listed as cerulenin)	inhibition of tTG ([1]; 0.01X concentration)	inhibition of tTG ([1]; 0.1X concentration)	Papain inhibition (result in words, IC50 table) (papain; listed as ZG-1400a)	Papain inhibition (result in words, IC50 table) (papain; listed as ZG-1440)
NC(=O)CI [Iodoacetamide, iodoacetamide]	10	0.01	did cause inhibition	–	–	–	–	–	–	–	–
CC=CCC=CCCC(=O)C1OC1C(N)=O (stereo not drawn) [Cerulenin, 2,3-epoxy-4-oxo-7,10-dodecadienamide]	–	–	No inhibition	25	significantly more susceptible to lysis	97	did not inhibit papain activity	–	–	–	–
C[C@@H]1CCC/C=C\C(=O)Cc2cc(O)cc(O)c2C(=O)O1 [ZG-1400, R(-) enantiomer of cis-resorcylide]	–	–	–	3.1	significantly more susceptible to lysis	46	–	about 95%	about 70%	did not inhibit papain activity	No inhibition
